Laboratory results as given in patent publication US9428519B2, “Acylated derivative of homoharringtonine, preparation method therefor, and application thereof” (HANGZHOU BENSHENG PHARMACEUTICAL CO., LTD., priority 2011, dated 2016).
≈ marks a conversion by molar mass, not a printed value.

Legend:
A549 (human lung cancer) = experiment: MTT growth inhibition of human solid tumor cells, 72 h; format: cell-based; details: Homo sapiens, A549
In short: (§1)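 4000 cells/well, DMEM high glucose + 10% FBS, 37° C, 5% CO2; 24 h attachment. Add compound, various concentrations, 72 h. MTT readout; % viability vs untreated control (100%).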

[1] = test system: Becap37 (human breast cancer cell); experiment: as above; format: cell-based; details: Homo sapiens
In short: as §1

[2] = test system: CNE (nasopharyngeal carcinoma cell); experiment: as above; format: cell-based; details: Homo sapiens, MTT
In short: as §1

[3] = test system: CaES-17 (esophageal cancer cell); experiment: as above; format: cell-based; details: Homo sapiens, CaEs17
In short: as §1

[4] = test system: Hela (human cervical cancer cell); experiment: as above; format: cell-based
In short: as §1

[5] = test system: Hep-2 (laryngeal carcinoma); experiment: as above; format: cell-based; details: Homo sapiens, HEp-2
In short: as §1

[6] = test system: Huh7 (human liver cancer cell); experiment: as above; format: cell-based; details: Homo sapiens, Huh-7
In short: as §1

[7] = test system: MGC 803 (human gastric cancer cell); experiment: as above; format: cell-based; details: Homo sapiens, MGC-803
In short: as §1

[8] = test system: PANC-1 (pancreatic cancer); experiment: as above; format: cell-based
In short: as §1

PC-3 (prostate cancer) = experiment: as above; format: cell-based
In short: as §1

[9] = test system: SK-OV-3 (ovarian cancer cell); experiment: as above; format: cell-based
In short: as §1

[10] = test system: U87 MG (malignant glioma cell); experiment: as above; format: cell-based; details: Homo sapiens, U-87 MG
In short: as §1

[11] = Body weight and toxicity in tumor-bearing BALB/c-nu nude mice; format: in vivo; details: for Weight (g) Final / Weight (g) Initial: 10 days
Protocol: Animal: BALB/c-nu nude mice, 8 weeks, female, purchased from Shanghai Laboratory Animal Center of Chinese Academy of Sciences, China.
BS-HH-002, wherein BS-HH-002-0.1 indicates a dosage of 0.1 mg/kg each time, BS-HH-002-0.3 indicates a dosage of 0.3 mg/kg each time, BS-HH-002-0.5 indicates a dosage of 0.5 mg/kg each time, and BS-HH-002-1.0 indicates a dosage of 1.0 mg/kg each time.
Under sterile conditions, the above tumor cells in logarithmic growth phase are collected and injected in an amount of 2×10^7/0.2 ml/nude mice (cell viability>95%) into the right subaxillary of the nude mice by subcutaneous injection, thus establishing a BALB/c-nu nude mice model bearing transplanted tumor of gastric cancer. The mice are administered on the third day after the inoculation, wherein the experimental groups are intragastrically administered in an experimentally designed amount, and the negative control group is intragastrically administered with sterile water. Administration takes place at 8:00 for one time a day, at 8:00 and 14:00 for twice a day, and at 8:00, 14:00 and 20:00 with 6-hour intervals for three times day. The administrations are successive for 10 days. The day before administration is Day 0 and the weight and tumor size are determined approximately every 5 days to produce a plot on weight and tumor growth. On Day 27, the mice are dissected and the tumors are taken out and weighed. Based on a tumor inhibition rate of zero for the control group, the tumor inhibition rate (%) after the effect of the medicament is calculated.
The values determined are presented as mean±standard error (M±SD). The experimental data for each group are analyzed by the One-way ANOVA method of SPSS 18.0 Statistical Software, and p<0.05 is deemed as having statistically significant difference.

[12] = 0.1 mg/kg/time, 1 time/day intragastric
[13] = 0.1 mg/kg/time, 2 times/day intragastric
[14] = 0.1 mg/kg/time, 3 times/day intragastric
[15] = 0.3 mg/kg/time, 1 time/day intragastric
[16] = 0.5 mg/kg/time, 1 time/day intragastric
[17] = 0.5 mg/kg/time, 2 times/day intragastric
[18] = 0.5 mg/kg/time, 3 times/day intragastric
[19] = 1.0 mg/kg/time, 1 time/day intragastric
[20] = 1.0 mg/kg/time, 3 times/day intragastric

Compound: COC(=O)C[C@](O)(CCCC(C)(C)OC(C)=O)C(=O)O[C@@H]1C(OC)=C[C@]23CCCN2CCc2cc4c(cc2[C@H]13)OCO4 [BS-HH-002, 6-acetylhomoharringtonine]
- IC50 (A549 (human lung cancer)): 0.013 µg/mL (≈ 0.0221 µM)
- IC90 (A549 (human lung cancer)): > 16 µg/mL
- IC50 [1]: 0.005 µg/mL (≈ 0.00851 µM)
- IC90 [1]: 16 µg/mL (≈ 27.2 µM)
- IC50 [2]: 0.024 µg/mL (≈ 0.0408 µM)
- IC90 [2]: > 16 µg/mL
- IC50 [3]: 0.02 µg/mL (≈ 0.034 µM)
- IC90 [3]: > 16 µg/mL
- IC50 ([4]; Homo sapiens, HeLa, MTT): 0.0077 µg/mL (≈ 0.0131 µM)
- IC90 ([4]; Homo sapiens, HeLa, MTT): 16 µg/mL (≈ 27.2 µM)
- anti-Hela effect relative to homoharringtonine ([4]; vs HHT): more than 2.5 fold
- IC50 [5]: 0.0037 µg/mL (≈ 0.0063 µM)
- IC90 [5]: > 16 µg/mL
- IC50 [6]: 0.0021 µg/mL (≈ 0.00357 µM)
- IC90 [6]: 0.018 µg/mL (≈ 0.0306 µM)
- IC50 [7]: 0.008 µg/mL (≈ 0.0136 µM)
- IC90 [7]: 0.056 µg/mL (≈ 0.0953 µM)
- IC50 ([8]; Homo sapiens, PANC-1, MTT): 0.012 µg/mL (≈ 0.0204 µM)
- IC90 ([8]; Homo sapiens, PANC-1, MTT): > 16 µg/mL
- anti-PANC-1 effect relative to homoharringtonine ([8]; vs HHT): more than 3 fold
- IC50 (PC-3 (prostate cancer); Homo sapiens, MTT): 0.013 µg/mL (≈ 0.0221 µM)
- IC90 (PC-3 (prostate cancer); Homo sapiens, MTT): > 16 µg/mL
- anti-PC-3 effect relative to homoharringtonine (PC-3 (prostate cancer); vs HHT): more than 6 fold
- IC50 ([9]; Homo sapiens, SK-OV-3, MTT): 0.05 µg/mL (≈ 0.0851 µM)
- IC90 ([9]; Homo sapiens, SK-OV-3, MTT): > 16 µg/mL
- anti-SK-OV-3 effect relative to homoharringtonine ([9]; vs HHT): 2 fold
- IC50 [10]: 0.002 µg/mL (≈ 0.0034 µM)
- IC90 [10]: 0.012 µg/mL (≈ 0.0204 µM)
- Weight (g) Final [11, 12]: 27.18 ± 3.62 g
- Weight (g) Initial [11, 12]: 18.88 ± 0.56 g
- Weight (g) Final [11, 13]: 25.63 ± 1.06 g
- Weight (g) Initial [11, 13]: 21.35 ± 0.34 g
- Weight (g) Final [11, 14]: 28.50 ± 2.83 g
- Weight (g) Initial [11, 14]: 24.58 ± 0.39 g
- Weight (g) Final [11, 15]: 24.30 ± 1.38 g
- Weight (g) Initial [11, 15]: 18.98 ± 0.51 g
- Weight (g) Final [11, 16]: 25.78 ± 1.15 g
- Weight (g) Initial [11, 16]: 20.10 ± 0.22 g
- Weight (g) Final [11, 17]: 26.68 ± 1.42 g
- Weight (g) Initial [11, 17]: 22.28 ± 0.43 g
- Weight (g) Final [11, 18]: 26.33 ± 2.76 g
- Weight (g) Initial [11, 18]: 23.50 ± 0.37 g
- Weight (g) Final [11, 19]: 25.95 ± 0.94 g
- Weight (g) Initial [11, 19]: 20.45 ± 0.76 g
- Weight (g) Final [11, 20]: 29.98 ± 1.32 g
- Weight (g) Initial [11, 20]: 26.98 ± 0.75 g
- toxic and side effect ([11]; all dosages 0.1-1.0 mg/kg): none of the dosages causes obvious toxic and side effect
- animal deaths until dissection ([11]; all groups, until Day 27): none of the animals has died
